{
  "source": "patent US7504403B2",
  "about": "“Substituted heterocyclic compounds and methods of use” (Amgen Inc., priority 2004, dated 2009)",
  "test_system": "LPS induced TNF release",
  "assay": "Lipopolysaccharide-Activated THP1 Cell TNF Production Assay",
  "assay_type": "cell-based",
  "details": "Homo sapiens, THP-1",
  "method": "Lipopolysaccharide-Activated THP1 Cell TNF Production Assay\nTHP1 cells are resuspended in fresh THP1 media (RPMI 1640, 10% heat-inactivated FBS, 1×PGS, 1×NEAA, plus 30 μM βME) at a concentration of 1E6/mL. One hundred microliters of cells per well are plated in a polystyrene 96-well tissue culture. One microgram per mL of bacterial LPS is prepared in THP1 media and is transferred to the wells. Test compounds are dissolved in 100% DMSO and are serially diluted 3 fold in a polypropylene 96-well microtiter plate (drug plate). HI control and LO control wells contain only DMSO. One microliter of test compound from the drug plate followed by 10 μL of LPS are transferred to the cell plate. The treated cells are induced to synthesize and secrete TNF-α at 37° C. for 3 h. Forty microliters of conditioned media are transferred to a 96-well polypropylene plate containing 110 μL of ECL buffer (50 mM Tris-HCl pH 8.0, 100 mM NaCl, 0.05% Tween 20, 0.05% NaN3 and 1%FBS) supplemented with 0.44 nM MAB610 monoclonal Ab (R&D Systems), 0.34 nM ruthenylated AF210NA polyclonal Ab (R&D Systems) and 44 μg/mL sheep anti-mouse M280 Dynabeads (Dynal). After a 2 h incubation at room temperature with shaking, the reaction is read on the ECL M8 Instrument (IGEN Inc.). A low voltage is applied to the ruthenylated TNF-α immune complexes, which in the presence of TPA (the active component in Origlo), results in a cyclical redox reaction generating light at […]. The amount of secreted TNF-α in the presence of compound compared with that in the presence of DMSO vehicle alone (HI control) is calculated using the formula: % control (POC)=(cpd−average LO)/(average HI−average LO)*100. Data (consisting of POC and inhibitor concentration in μM) is fitted to a 4-parameter equation (y=A+((B−A)/(1+((x/C)^D))), where A is the minimum y (POC) value, B is the maximum y (POC), C is the x (cpd concentration) at the point of inflection and D is the slope factor) using a Levenburg-Marquardt non-linear regression algorithm.",
  "data": [
    {"smiles": "O=c1cc(-c2ccccc2)cc2n1CCCN2c1cc(NCCc2ccccc2Cl)ncn1", "note": "[Example 86, 1-{6-[2-(2-Chloro-phenyl)-ethylamino]-pyrimidin-4-yl}-8-phenyl-1,2,3,4-tetrahydro-pyrido[1,2-a]pyrimidin-6-one]", "values": [
      {"measurement": "IC50", "value": "≤ 20", "unit": "µM"}
    ]},
    {"smiles": "O=c1cc(-c2ccccc2)cc2n1CCN2c1ccnc(NCCc2ccccc2)n1", "note": "[Example 87, 1-(2-Phenethylamino-pyrimidin-4-yl)-7-phenyl-2,3-dihydro-1H-imidazo[1,2-a]pyridin-5-one]", "values": [
      {"measurement": "IC50", "value": "≤ 20", "unit": "µM"}
    ]},
    {"smiles": "CC(Cc1cccc(CO)c1)Nc1nccc(N2CCn3c2cc(-c2ccccc2)cc3=O)n1", "note": "(stereo not shown) [Example 88, 1-{2-[2-(3-Hydroxymethyl-phenyl)-1-methyl-ethylamino]-pyrimidin-4-yl}-7-phenyl-2,3-dihydro-1H-imidazo[1,2-a]pyridin-5-one]", "values": [
      {"measurement": "IC50", "value": "≤ 20", "unit": "µM"}
    ]},
    {"smiles": "O=c1cc(-c2ccccc2)cc2n1CCN2c1cncc(NCCc2ccccc2)n1", "note": "[Example 89, 1-(6-Phenethylamino-pyrazin-2-yl)-7-phenyl-2,3-dihydro-1H-imidazo[1,2-a]pyridin-5-one]", "values": [
      {"measurement": "IC50", "value": "≤ 20", "unit": "µM"}
    ]}
  ]
}
